From patent publication EP2997966A1, “Naphthyl Sulfonamide Pyrrolidine Derivatives as KEAP-1 Modulators for the Treatment of Diabetes, Obesity, Dyslipidemia and Related Disorders” (SANOFI, priority 2014, dated 2016)

Target: T1, human Keap1 kelch domain (amino acids Ala321-Thr609) (Homo sapiens, UniProt Q14145)
T1 construct: human Keap1 kelch domain (amino acids Ala321-Thr609)
Test: Keap1-Nrf2 peptide binding assay (fluorescence polarisation)
Details: binding to fluorescently labeled human Nrf2 peptide; 20 nM Keap1 kelch domain, 50 nM peptide
Method: Keap1-Nrf2 peptide binding assay
Two microliters of test compound in reaction buffer (phosphate-buffered saline, 2 mM DL-dithiothreitol, 0.015 % (v/v) Brij-35) containing 6 % (v/v) DMSO were mixed with two microliters of the Keap1 kelch domain in reaction buffer in a black 384-well small volume microtiter plate and incubated at ambient temperature for 15 minutes. Thereafter, two microliters were added of the fluorescently labeled Nrf2 peptide in reaction buffer, and the mixture was incubated for a further 30 minutes at ambient temperature. Final concentrations of the Keap1 kelch domain and the fluorescently labeled Nrf2 peptide were 20 nM and 50 nM, respectively.
Fluorescence polarization (FP) was measured at excitation and emission wavelengths of 635 nm and 660 nm, respectively. Positive controls for binding (two microliters of reaction buffer containing 6 % (v/v) DMSO instead of test compound in the same buffer) and negative controls (as positive controls, but without Keap1 kelch domain) were included on each microtiter plate.

T1 sequence (Q14145 321-609): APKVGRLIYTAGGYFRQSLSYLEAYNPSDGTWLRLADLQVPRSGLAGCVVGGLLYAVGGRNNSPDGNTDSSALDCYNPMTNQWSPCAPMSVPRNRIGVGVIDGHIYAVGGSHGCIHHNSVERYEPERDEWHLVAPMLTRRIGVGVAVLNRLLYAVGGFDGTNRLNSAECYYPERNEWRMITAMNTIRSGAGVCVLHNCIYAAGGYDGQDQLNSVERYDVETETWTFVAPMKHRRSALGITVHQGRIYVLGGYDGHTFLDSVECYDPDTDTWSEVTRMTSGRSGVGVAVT

SMILES	IC50 [µM]
Cc1ccc(Cl)cc1S(=O)(=O)Nc1ccc(N2CC[C@@H](C(=O)O)C2)c2ccccc12 [Example 43, (3R)-1-[4-[(5-chloro-2-methylphenyl)sulfonylamino]-1-naphthyl]pyrrolidine-3-carboxylic acid]	1.2
O=C(O)[C@@H]1CCN(c2ccc(NS(=O)(=O)c3cc(F)c(F)cc3Cl)c3ccccc23)C1 [Example 45, (3R)-1-[4-[(2-chloro-4,5-difluorophenyl)sulfonylamino]-1-naphthyl]pyrrolidine-3-carboxylic acid]	4.5
O=C(O)[C@@H]1CCN(c2ccc(NS(=O)(=O)c3cc(F)cc(F)c3Cl)c3ccccc23)C1 [Example 46, (3R)-1-[4-[(2-chloro-3,5-difluorophenyl)sulfonylamino]-1-naphthyl]pyrrolidine-3-carboxylic acid]	7.4
COc1ccc(S(=O)(=O)Nc2ccc(N3CC[C@@H](C(=O)O)C3)c3ccccc23)c(OC)c1 [Example 47, (3R)-1-[4-[(2,4-dimethoxyphenyl)sulfonylamino]-1-naphthyl]pyrrolidine-3-carboxylic acid]	6.1
O=C(O)[C@@H]1CCN(c2ccc(NS(=O)(=O)c3cc(Cl)ccc3Cl)c3ccccc23)C1 [Example 48, (3R)-1-[4-[(2,5-dichlorophenyl)sulfonylamino]-1-naphthyl]pyrrolidine-3-carboxylic acid]	2.5
Cc1c(S(=O)(=O)Nc2ccc(N3CC[C@@H](C(=O)O)C3)c3ccccc23)cnn1CC(C)C [Example 49, (3R)-1-[4-[(1-isobutyl-5-methyl-pyrazol-4-yl)sulfonylamino]-1-naphthyl]pyrrolidine-3-carboxylic acid]	2.9
Cc1nn(C)c(Cl)c1S(=O)(=O)Nc1ccc(N2CC[C@@H](C(=O)O)C2)c2ncccc12 [Example 52, (3R)-1-[5-[(5-chloro-1,3-dimethyl-pyrazol-4-yl)sulfonylamino]-8-quinolyl]pyrrolidine-3-carboxylic acid]	2.7
CCCn1ncc(S(=O)(=O)Nc2ccc(N3CC[C@@H](C(=O)O)C3)c3ccccc23)c1C [Example 54, (3R)-1-[4-[(5-methyl-1-propyl-pyrazol-4-yl)sulfonylamino]-1-naphthyl]pyrrolidine-3-carboxylic acid]	1.8
Cc1c(S(=O)(=O)Nc2ccc(N3CC[C@@H](C(=O)O)C3)c3ncccc23)c2ccccc2n1C [Example 71, (3R)-1-[5-[(1,2-dimethylindol-3-yl)sulfonylamino]-8-quinolyl]pyrrolidine-3-carboxylic acid]	1.1
O=C(O)[C@@H]1CCN(c2ccc(NS(=O)(=O)c3cccc4c3OCCO4)c3ccccc23)C1 [Example 74, (3R)-1-[4-(2,3-dihydro-1,4-benzodioxin-5-ylsulfonylamino)-1-naphthyl]pyrrolidine-3-carboxylic acid]	9.1

Same assay, conditions: binding to fluorescently labeled human Nrf2 peptide; 20 nM Keap1 kelch domain, 50 nM peptide; read-out: IC50

IC50 [µM]	SMILES
2.5	COc1ccc(F)c(S(=O)(=O)Nc2ccc(N3CC[C@@H](C(=O)O)C3)c3ccccc23)c1 [Example 44, (3R)-1-[4-[(2-fluoro-5-methoxyphenyl)sulfonylamino]-1-naphthyl]pyrrolidine-3-carboxylic acid]
2.8	Cc1c(S(=O)(=O)Nc2ccc(N3CC[C@@H](C(=O)O)C3)c3ccccc23)cnn1C1CCCC1 [Example 50, (3R)-1-[4-[(1-cyclopentyl-5-methyl-pyrazol-4-yl)sulfonylamino]-1-naphthyl]pyrrolidine-3-carboxylic acid]
0.6	Cc1cc(C)c(C)c(S(=O)(=O)Nc2ccc(C3=CCC(C(=O)O)CC3)c3ccccc23)c1C (centres unmarked) [Example 57, 4-[4-[(2,3,5,6-tetramethylphenyl)sulfonylamino]-1-naphthyl]cyclohex-3-ene-1-carboxylic acid]
0.27	Cc1cc(C)c(C)c(S(=O)(=O)Nc2ccc(N3CCC[C@@H](C(=O)O)C3)c3ccccc23)c1C [Example 58, (3R)-1-[4-[(2,3,5,6-tetramethylphenyl)sulfonylamino]-1-naphthyl]piperidine-3-carboxylic acid]
0.5	Cc1cc(C)c(C)c(S(=O)(=O)Nc2ccc(N3CCC[C@H](C(=O)O)C3)c3ccccc23)c1C [Example 59, (3S)-1-[4-[(2,3,5,6-tetramethylphenyl)sulfonylamino]-1-naphthyl]piperidine-3-carboxylic acid]
0.13	Cc1c(S(=O)(=O)Nc2ccc(N3CC[C@@H](C(=O)O)C3)c3ccccc23)sc2cccc(F)c12 [Example 60, (3R)-1-[4-[(4-fluoro-3-methyl-benzothiophen-2-yl)sulfonylamino]-1-naphthyl]pyrrolidine-3-carboxylic acid]
0.26	Cc1c(S(=O)(=O)Nc2ccc(N3CC[C@@H](C(=O)O)C3)c3ccccc23)c2ccccc2n1C [Example 63, (3R)-1-[4-[(1,2-dimethylindol-3-yl)sulfonylamino]-1-naphthyl]pyrrolidine-3-carboxylic acid]
0.5	Cn1ccc2c(S(=O)(=O)Nc3ccc(N4CC[C@@H](C(=O)O)C4)c4ccccc34)cccc21 [Example 64, (3R)-1-[4-[(1-methylindol-4-yl)sulfonylamino]-1-naphthyl]pyrrolidine-3-carboxylic acid]
0.19	CCCCCCCCn1nc(C)c(S(=O)(=O)Nc2ccc(N3CC[C@@H](C(=O)O)C3)c3ccccc23)c1C [Example 65, (3R)-1-[4-[(3,5-dimethyl-1-octyl-pyrazol-4-yl)sulfonylamino]-1-naphthyl]pyrrolidine-3-carboxylic acid]
0.3	Cc1c(S(=O)(=O)Nc2ccc(N3CC[C@@H](C(=O)O)C3)c3ncccc23)sc2cccc(F)c12 [Example 70, (3R)-1-[5-[(4-fluoro-3-methyl-benzothiophen-2-yl)sulfonylamino]-8-quinolyl]pyrrolidine-3-carboxylic acid]
0.4	Cc1c(S(=O)(=O)Nc2ccc(N3CC[C@@H](C(=O)O)C3)c3ncccc23)sc2ccc(Cl)cc12 [Example 72, (3R)-1-[5-[(5-chloro-3-methyl-benzothiophen-2-yl)sulfonylamino]-8-quinolyl]pyrrolidine-3-carboxylic acid]
1.6	CCCCCCCCn1nc(C)c(S(=O)(=O)Nc2ccc(N3CC[C@@H](C(=O)O)C3)c3ncccc23)c1C [Example 73]
0.6	O=C(O)[C@@H]1CCN(c2ccc(NS(=O)(=O)c3ccc4c(c3)CCCC4)c3ccccc23)C1 [Example 77, (3R)-1-[4-(tetralin-6-ylsulfonylamino)-1-naphthyl]pyrrolidine-3-carboxylic acid]
